In paper PMC4140852 (PLoS Pathogens, 2014):

Target: T1, APRc (rAPRc activation product, rAPRc105-231) (Rickettsia conorii, UniProt Q92FY8)
T1 construct: gene RC1339
Type: biochemical

T1 sequence (Q92FY8 105-231 limits assumed): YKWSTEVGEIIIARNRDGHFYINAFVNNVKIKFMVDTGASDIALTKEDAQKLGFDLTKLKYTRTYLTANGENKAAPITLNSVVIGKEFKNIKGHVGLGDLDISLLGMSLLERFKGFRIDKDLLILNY

CC(C)(C)NC(=O)[C@@H]1CN(Cc2cccnc2)CCN1C[C@@H](O)C[C@@H](Cc1ccccc1)C(=O)N[C@H]1c2ccccc2C[C@H]1O [indinavir]
% inhibition at 0.25 mM: incubation with indinavir resulted in a near complete inhibition of APRc
